Test results: patent US20080253972A1, “Aqueous/alcoholic deodorant composition comprising a water-soluble zinc salt and salicylic acid” (priority 2006, published 2008)

Test system: Corynebacterium xerosis
Assay: Quantitative determination of bactericidal activity with regard to microorganisms involved in axillary odors
Format: cell-based
Conditions: 24 hours contact, carrier gel pH 7, Log reduction classes
From the text: The test described here makes possible the quantitative determination of the bactericidal activity of an active principle (i.e.: zinc salicylate/salicylic acid or triclosan) conveyed in an appropriate carrier which is neutral with regard to the bacteria tested. The bacteria studied were microorganisms under optimum growth conditions, namely microorganisms of the Corynebacterium xerosis type (Institut Pasteur Collection No. 5216) cultured on a gradient of tryptocasein soybean agar.
The day before the test, 32 g of tryptocasein soybean broth was placed in a sample tube and incubated at 35° C. The day of the test, 4 g of the test composition was added and the mixture was homogenized using a Vortex render.
A growth control without product was also prepared under the same conditions in order to confirm that the microorganisms are under favorable growth conditions throughout the duration of the test. […]
The colonies on the dishes comprising more than 20 and less than 200 colonies were counted. […]
The following two carrier gels A and B were prepared (amounts expressed as percentages by weight): […]
The bactericidal activity of each of formulations 9 and 10 (see below) with regard to the Corynebacterium xerosis strain was measured and compared to a formulation devoid of active principle.

## Oc1cc(Cl)ccc1Oc1ccc(Cl)cc1Cl [Triclosan, 2,4,4′-trichloro-2′-hydroxydiphenyl ether]
  Effectiveness at 24 hours with respect to the gel devoid of active principle: Excellent
